Test results from US5780589A, “Ultraselective opioidmimetic peptides and pharmacological and therapeutic uses thereof” (The United States of America as represented by the …, priority 1994, dated 1998).
Read-outs that look alike come from different tables or passages of the source. Non-standard residues stand in square brackets, D forms with d. Residues, ends and D or L forms follow the SMILES beside them. No end group written: not given here. Dmt = Cc1cc(O)cc(C)c1C[C@H](N)C(=O)O; Tic = O=C(O)[C@@H]1Cc2ccccc2CN1; dTic = O=C(O)[C@H]1Cc2ccccc2CN1

Columns and labels:
μ receptor [1] = molecular target: T1, μ receptor (Rattus norvegicus, UniProt P33535); experiment: μ receptor binding, rat membrane synaptosomes, [3H]DAGO; conditions: rat synaptosomes (P2), mean ± SEM
T1 construct: Rat membrane synaptosome preparations (P2 fraction) were prepared as detailed previously; from tissue; host or cells: rat synaptosomal membranes (P2 fraction)
T1 sequence (P33535 whole entry): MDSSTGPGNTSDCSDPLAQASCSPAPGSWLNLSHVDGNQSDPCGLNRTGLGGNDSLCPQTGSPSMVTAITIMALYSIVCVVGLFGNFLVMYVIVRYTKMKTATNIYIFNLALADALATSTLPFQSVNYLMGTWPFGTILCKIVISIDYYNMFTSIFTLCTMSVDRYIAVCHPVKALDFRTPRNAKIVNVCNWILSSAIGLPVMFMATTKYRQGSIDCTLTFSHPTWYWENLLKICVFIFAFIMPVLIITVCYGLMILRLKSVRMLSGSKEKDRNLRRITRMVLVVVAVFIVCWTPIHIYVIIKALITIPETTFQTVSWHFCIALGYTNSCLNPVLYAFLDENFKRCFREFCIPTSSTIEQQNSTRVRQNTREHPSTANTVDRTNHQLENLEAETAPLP
Description: (§1) Rat membrane synaptosome preparations (P2 fraction) were prepared as detailed previously, which included a preincubation step to reduce the presence of endogenous ligands and binding of G proteins (33,40). […] Samples were rapidly filtered through wetted glass fiber filters and thoroughly washed with 6 mL (3×2 mL) ice-cold 50 mM Tris-HCl, pH 7.5, containing 0.01-0.1% chicken egg albumin or bovine serum albumin. […] The filters were dried at 70° C. and the radioactivity determined after an overnight incubation period in CytoScint to maximize the radioactivity detected and reduce variability between samples. The IC50 values were converted to affinity constants (Ki) according to Cheng and Prusoff (48).

δ opioid receptor [2] = molecular target: T2, δ opioid receptor (Rattus norvegicus, UniProt P33533); experiment: δ receptor binding, rat membrane synaptosomes, [3H]DPDPE; conditions: for Ki: [3H]DPDPE, rat synaptosomes (P2), mean ± SEM; for μ/δ (receptor selectivity): ratio Ki μ / Ki δ; for selectivity change on D-Tic substitution: δ→μ
T2 construct: Rat membrane synaptosome preparations (P2 fraction) were prepared as detailed previously; from tissue; host or cells: rat synaptosomal membranes (P2 fraction)
T2 sequence (P33533 whole entry): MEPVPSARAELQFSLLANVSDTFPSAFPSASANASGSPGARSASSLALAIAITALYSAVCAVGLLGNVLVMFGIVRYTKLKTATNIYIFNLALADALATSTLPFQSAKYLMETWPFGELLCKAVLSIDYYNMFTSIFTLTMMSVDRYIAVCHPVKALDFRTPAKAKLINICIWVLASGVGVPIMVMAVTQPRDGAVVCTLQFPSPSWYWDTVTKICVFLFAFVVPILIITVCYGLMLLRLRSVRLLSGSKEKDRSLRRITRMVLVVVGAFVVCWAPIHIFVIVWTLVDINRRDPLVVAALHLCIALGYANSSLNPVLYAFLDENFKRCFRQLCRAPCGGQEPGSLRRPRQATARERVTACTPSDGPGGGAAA
Description: as §1

δ opioid receptor [3] = molecular target: T2, δ opioid receptor; conditions: data from Temussi et al. (39), cited from earlier work; for Ki: [3H]DPDPE; for μ/δ (receptor selectivity): ratio Ki μ / Ki δ
μ receptor [4] = molecular target: T1, μ receptor; conditions: [3H]DAGO; data from Temussi et al. (39); cited from earlier work

| Compound | Ki (μ receptor [1]) | Ki (δ opioid receptor [2]) | μ/δ (receptor selectivity) (δ opioid receptor [2]) | Ki (δ opioid receptor [3]) | μ/δ (receptor selectivity) (δ opioid receptor [3]) | Ki (μ receptor [4]) | selectivity change on D-Tic substitution (δ opioid receptor [2]) |
| --- | --- | --- | --- | --- | --- | --- | --- |
| Cc1cc(O)cc(C)c1C[C@H](N)C(=O)N1Cc2ccccc2C[C@@H]1C(=O)N[C@@H](C)C(N)=O [Peptide 11, Dmt-D-Tic-Ala-NH2] (H-[Dmt]-[dTic]-Ala-NH2) | 5.8 ± 0.85 nM | 46.4 ± 2.7 nM | 0.13 |  |  |  |  |
| N[C@@H](Cc1ccc(O)cc1)C(=O)N1Cc2ccccc2C[C@H]1C(=O)O [Peptide 12, Tyr-Tic-OH, reference compound] (H-Tyr-[Tic]-OH) |  |  | 148 |  |  |  |  |
| N[C@@H](Cc1ccc(O)cc1)C(=O)N1Cc2ccccc2C[C@@H]1C(=O)O [Peptide 14, Tyr-D-Tic-OH, reference compound] (H-Tyr-[dTic]-OH) | 26300 nM | 9050 nM | 2.9 |  |  |  |  |
| NC(=O)[C@H]1Cc2ccccc2CN1C(=O)[C@@H](N)Cc1ccc(O)cc1 [Peptide 15, Tyr-D-Tic-NH2] (H-Tyr-[dTic]-NH2) |  |  |  | 5960 nM | 0.53 | 3130 nM | reversal of selectivity |
| N[C@@H](Cc1ccc(O)cc1)C(=O)N1Cc2ccccc2C[C@H]1CO [Peptide 16, Tyr-Tic-CH2 OH, reference compound] | 11000 nM | 128 ± 34.7 nM | 86 |  |  |  |  |
| O=C1N[C@@H](Cc2ccc(O)cc2)C(=O)N2Cc3ccccc3C[C@@H]12 [Peptide 17, c(Tyr-Tic), reference compound] | 51500 nM | 41800 nM | 1.2 |  |  |  |  |
| O=C1N[C@@H](Cc2ccc(O)cc2)C(=O)N2Cc3ccccc3C[C@H]12 [Peptide 18, c(Tyr-D-Tic), reference compound] | 128000 nM | 8910 nM | 14 |  |  |  |  |
| C[C@H](NC(=O)[C@H]1Cc2ccccc2CN1C(=O)[C@@H](N)Cc1ccc(O)cc1)C(=O)O [Peptide 21, Tyr-D-Tic-Ala-OH, reference compound] (H-Tyr-[dTic]-Ala-OH) | 14000 nM | 2350 nM | 6 |  |  |  |  |
| C[C@H](NC(=O)[C@H]1Cc2ccccc2CN1C(=O)[C@@H](N)Cc1ccc(O)cc1)C(N)=O [Peptide 22, Tyr-D-Tic-Ala-NH2] (H-Tyr-[dTic]-Ala-NH2) |  |  |  | 21100 nM | 0.39 | 8150 nM | reversal of selectivity |
| Tyr-Tic-NH2 [Peptide 13] |  |  |  | 166 ± 48.1 nM | 173 | 28700 nM |  |
| Tyr-[Tic]-Ala-NH2 [Peptide 20] |  |  |  | 55.5 ± 13.7 nM | 610 | 33800 nM |  |
| Tyr-[Tic]-Ala-OH [Peptide 19] |  |  |  | 56.1 ± 10.3 nM | 148 | 8290 nM |  |
